The source of these data is patent publication US20240148623A1, “GADUSOL AND GADUSPORINE COMPOUND FORMULATIONS FOR TOPICALS” (GADUSOL LABORATORIES, INC., priority 2021, published 2024).

Read-outs that look alike come from different tables or passages of the source.

Series [1] in a line: Solubility in methanol. The format is physicochemical. The text has this:
Gadusporine B 102 contains L-alanine and glycine, making gadusporine B 102 an analog of mycosporine-glycine-alanine.

Series [2] is described as follows: UV absorbance (absorption maximum, molar extinction coefficient). Type of series: physicochemical. The conditions noted are these: for UV maximum: under acidic conditions. The text has this:
Gadusol, gadusporine A 100, gadusporine, B 102, and gadusporine C 104 may be isolated by column purification of Streptomyces coelicolor culture broth (as described in the above publication).
Despite the only difference being a hydroxy group, there are a few notable differences between shinorine and gadusporine A 100. Shinorine has been reported to have an absorption max=330 nm at pH 1.7 and an absorption max=334 nm at pH 7. […] Gadusporine A 100 has a molar extinction coefficient (□□=49,400, as measured in 50 mM phosphate buffer at pH 7.0, which is slightly higher than that of shinorine (□□=44,000), and thus has stronger UV absorbance activity.

For series [3] the following is noted: cited from earlier work.
Series [4] has as its system E. coli. In words: Toxicity towards E. coli. Type of series: cell-based.
The nature of series [5]: Ames test (mutagenicity). The format is cell-based.
The nature of series [6]: Comet assay. Type of series: cell-based. The text has this:
(§1) The cellular toxicity of gadusol was compared to that of a common sunscreen ingredient, oxybenzone. Vero E6 fibroblasts were used to evaluate toxicity.

Series [7] in a line: Storage stability of gadusol. The format is physicochemical. The conditions noted are these: after 90 days at pH 2.5. The text has this:
Addition of an antioxidant could be helpful in increasing the shelf life of gadusol. The stability of gadusol is much higher when stored under acidic conditions. For example, 90% activity was retained after 90 days at pH 2.5. Therefore, storage under acidic conditions may be useful for stabilizing gadusol generally, e.g., prior to introduction into a topical formulation. Combining gadusol with another antioxidant may be useful for extending the shelf life or stability of gadusol in a topical formulation. Storage of gadusol in nitrogen-purged solutions in containers with minimal headspace increased its stability.

Series [8] in a line: Antioxidant capacity, Folin-Ciocalteu method. The conditions noted are these: 0.3 to 10 mg/ml, versus porphyra-334.
Series [9] has as its system cells. In words: In vivo antioxidant testing (intracytoplasmic activity in cells). Conditions: for lysis of the cells: highest dose 3.3 mg/ml. Type of series: cell-based. As to the method:
The test is designed to measure antioxidant power but requires also that the anti-oxidant agent cross the cell's lipid boundary layer so that only intracytoplasmic activity is measured. […] Some activity was seen even at concentrations below 0.1 mg/ml.

Series [10] has as its system Vero E6 fibroblasts. As to the kind of experiment: Cellular toxicity in Vero E6 fibroblasts. Type of series: cell-based. Conditions: compared to oxybenzone.
Description: as §1

For the compound Gadusporine B, in series [1], the solubility in methanol result was “not very soluble in methanol”. In series [2], the UV maximum worked out at 338 nm.
For the compound `COC1=C(NCC(=O)O)C[C@@](O)(CO)C/C1=N\[C@@H](CO)C(=O)O` [Shinorine], the absorption max in series [3] (pH 1.7, reported) was 330 nm; in [3] (pH 7, reported), 334 nm. Besides, in series [3] (shinorine comparison value), the molar extinction coefficient is reported as 44,000.
With Gadusporine A, the molar extinction coefficient in series [2] (50 mM phosphate buffer at pH 7.0, in M-1 cm-1 (unit assumed)) is 49,400. In addition, the absorption max in series [2] (pH 2.0) turned out to be 338; in [2] (pH 7.0), 340 nm. The compound further yielded a UV maximum in [2] of 338 nm.
`COC1=C(O)CC(O)(CO)C(O)C1=O` (stereo not shown) [Gadusol]: the “toxicity towards E. coli” value in series [4] is on record as “nor toxic towards E. coli”. Moreover, the mutagenicity entry in [5] is “not to be mutagenic”. For the same compound, in series [6], the “toxicity in comet assay” value was “nor toxic in the comet assay”. In series [7], this compound gave an activity retained of 90%. The antioxidant power entry in series [8] was “equivalent to a mycosporine compound”. For the same compound, the “in vivo antioxidant activity” value in series [9] (at about 1 mg/ml, versus the mycosporine) was “significantly more active antioxidant”; in series [9] (overall, compared with porphyra-334), “outperformed porphyra-334”. Further, in [9], the “lysis of the cells” value is recorded as “some lysis of the cells”. The cellular toxicity entry in series [10] is “less toxic than oxybenzone”.
On to `COC1=C(NCC(=O)O)C[C@@](O)(CO)CC1=N[C@H](C(=O)O)[C@@H](C)O` [porphyra-334, reference compound], for which the “lysis of the cells” value in [9] is “some lysis of the cells”.
